Target: T1, LRRK2 (endogenous, HiBit tagged) (Homo sapiens, UniProt Q5S007)
T1 construct: endogenous in cells; host or cells: HEK293 cells with HiBit knock-in at the endogenous LRRK2 locus, stably expressing firefly luciferase
Test: Endogenous LRRK2 degradation assay, endogenous gene C-terminally HiBit-tagged in HEK293 cells (Nano-Glo Dual Luciferase)
Assay type: cell-based
Conditions: endogenous HiBit-tagged LRRK2 in HEK293 cells, 24 hours treatment; for Dmax: read-out: **Endogenous WT Dmax (%); for DC50: read-out: *Endogenous WT DC50
Outline: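 LRRK2-HiBit quantified via Nano-Glo Dual Luciferase in HEK293 knock-in cells co-expressing firefly luciferase, after 24 h exposure to compound (1 μM final top, 1:3, 11 points). Values normalised to DMSO median per plate and curve-fitted; Alamar Blue viability run alongside.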

T1 sequence (Q5S007 whole entry): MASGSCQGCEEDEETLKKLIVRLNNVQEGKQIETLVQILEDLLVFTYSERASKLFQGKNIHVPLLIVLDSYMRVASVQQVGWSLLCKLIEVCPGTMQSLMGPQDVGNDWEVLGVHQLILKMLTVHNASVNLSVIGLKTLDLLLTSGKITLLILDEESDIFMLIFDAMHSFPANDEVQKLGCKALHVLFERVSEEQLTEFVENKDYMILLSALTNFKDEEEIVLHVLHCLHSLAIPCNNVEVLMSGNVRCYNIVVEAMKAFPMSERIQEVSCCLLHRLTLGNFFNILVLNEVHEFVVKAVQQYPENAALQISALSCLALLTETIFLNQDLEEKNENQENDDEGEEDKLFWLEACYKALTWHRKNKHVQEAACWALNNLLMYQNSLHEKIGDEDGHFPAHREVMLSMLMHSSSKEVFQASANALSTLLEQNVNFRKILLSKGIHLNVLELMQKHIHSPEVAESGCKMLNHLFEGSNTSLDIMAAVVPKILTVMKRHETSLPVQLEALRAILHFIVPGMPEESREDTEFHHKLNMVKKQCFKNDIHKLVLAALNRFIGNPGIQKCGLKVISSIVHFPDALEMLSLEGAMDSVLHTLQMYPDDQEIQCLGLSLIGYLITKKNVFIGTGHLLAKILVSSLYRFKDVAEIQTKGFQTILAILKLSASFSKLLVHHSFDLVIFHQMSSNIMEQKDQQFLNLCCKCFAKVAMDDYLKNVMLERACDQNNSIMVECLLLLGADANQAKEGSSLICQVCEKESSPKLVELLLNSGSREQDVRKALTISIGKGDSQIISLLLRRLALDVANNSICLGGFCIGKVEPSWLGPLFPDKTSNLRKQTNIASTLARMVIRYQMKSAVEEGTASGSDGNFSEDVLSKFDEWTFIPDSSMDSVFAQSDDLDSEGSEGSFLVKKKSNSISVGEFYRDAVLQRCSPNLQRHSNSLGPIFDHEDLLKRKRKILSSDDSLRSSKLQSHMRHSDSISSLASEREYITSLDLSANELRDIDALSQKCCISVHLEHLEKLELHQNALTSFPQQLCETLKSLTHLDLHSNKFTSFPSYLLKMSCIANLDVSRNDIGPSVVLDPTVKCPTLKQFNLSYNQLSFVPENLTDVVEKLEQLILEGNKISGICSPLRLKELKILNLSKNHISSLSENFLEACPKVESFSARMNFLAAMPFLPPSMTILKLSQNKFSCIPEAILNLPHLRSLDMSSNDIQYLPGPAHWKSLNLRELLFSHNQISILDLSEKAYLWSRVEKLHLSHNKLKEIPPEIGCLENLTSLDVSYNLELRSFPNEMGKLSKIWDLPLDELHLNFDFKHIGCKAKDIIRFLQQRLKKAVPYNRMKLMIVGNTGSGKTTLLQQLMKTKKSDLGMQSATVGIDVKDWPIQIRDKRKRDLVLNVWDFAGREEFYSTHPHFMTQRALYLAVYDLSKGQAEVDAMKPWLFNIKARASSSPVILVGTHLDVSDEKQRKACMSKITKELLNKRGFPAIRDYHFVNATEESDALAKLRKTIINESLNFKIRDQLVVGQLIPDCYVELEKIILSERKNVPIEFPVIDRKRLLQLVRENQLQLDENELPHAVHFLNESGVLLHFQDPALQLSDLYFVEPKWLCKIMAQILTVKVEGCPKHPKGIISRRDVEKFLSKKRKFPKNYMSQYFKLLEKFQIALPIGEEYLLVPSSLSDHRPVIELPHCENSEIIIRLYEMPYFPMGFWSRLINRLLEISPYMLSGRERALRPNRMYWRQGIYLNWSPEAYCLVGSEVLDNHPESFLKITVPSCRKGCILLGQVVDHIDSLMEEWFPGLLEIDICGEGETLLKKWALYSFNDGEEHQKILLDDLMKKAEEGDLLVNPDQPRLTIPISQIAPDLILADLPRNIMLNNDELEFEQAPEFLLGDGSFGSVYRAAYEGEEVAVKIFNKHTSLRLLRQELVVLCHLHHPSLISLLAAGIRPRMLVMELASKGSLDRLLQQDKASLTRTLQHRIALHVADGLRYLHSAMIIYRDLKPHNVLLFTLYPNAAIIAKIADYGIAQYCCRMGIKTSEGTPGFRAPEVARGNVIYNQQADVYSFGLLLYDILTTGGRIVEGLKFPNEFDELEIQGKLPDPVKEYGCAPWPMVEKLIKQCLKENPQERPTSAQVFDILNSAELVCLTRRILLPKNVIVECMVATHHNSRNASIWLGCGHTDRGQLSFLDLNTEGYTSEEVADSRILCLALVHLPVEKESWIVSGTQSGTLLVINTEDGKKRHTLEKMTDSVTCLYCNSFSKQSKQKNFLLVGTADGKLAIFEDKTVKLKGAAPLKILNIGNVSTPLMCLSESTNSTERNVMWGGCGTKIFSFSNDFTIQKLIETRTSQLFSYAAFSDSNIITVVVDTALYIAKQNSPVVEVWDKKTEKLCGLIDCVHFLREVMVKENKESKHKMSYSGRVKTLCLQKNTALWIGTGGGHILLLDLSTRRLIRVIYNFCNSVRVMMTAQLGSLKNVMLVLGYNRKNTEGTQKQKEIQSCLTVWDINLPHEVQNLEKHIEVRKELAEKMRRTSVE

SMILES | Dmax | DC50
C[C@@H]1CN(CC2CCN(c3ccc4c(c3F)CN(C3CCC(=O)NC3=O)C4=O)CC2)C[C@H](C)N1CC1CCN(c2cc(-c3n[nH]c4ccc(OC5(C)CC5)cc34)ncn2)CC1 (stereo partly drawn) [Compound 284, 3-[5-(4-{[(3R,5S)-3,5-dimethyl-4-[(1-{6-[5-(1-methylcyclopropoxy)-1H-indazol-3-yl]pyrimidin-4-yl}piperidin-4-yl)methyl]piperazin-1-yl]methyl}piperidin-1-yl)-4-fluoro-1-oxo-2,3-dihydro-1H-isoindol-2-yl]piperidine-2,6-dione] | 50 to 70% | < 10 nM
COc1c(N2CCC(CN3CCN(CC4CCN(c5cc(-c6n[nH]c7ccc(OC8(C)CC8)cc67)ncn5)CC4)C[C@H]3C)CC2)ccc2c1CN(C1CCC(=O)NC1=O)C2=O (stereo partly drawn) [Compound 285, 3-[4-methoxy-5-(4-{[(2R)-2-methyl-4-[(1-{6-[5-(1-methylcyclopropoxy)-1H-indazol-3-yl]pyrimidin-4-yl}piperidin-4-yl)methyl]piperazin-1-yl]methyl}piperidin-1-yl)-1-oxo-2,3-dihydro-1H-isoindol-2-yl]piperidine-2,6-dione] | ≥ 70% | < 10 nM
CC1(Oc2ccc3[nH]nc(-c4cc(N5CCN(C[C@H]6CC[C@H](OC7CCN(c8c(F)cc9c(c8F)CN(C8CCC(=O)NC8=O)C9=O)CC7)CC6)CC5)ncn4)c3c2)CC1 (some centres unmarked) [Compound 286, 3-[4,6-difluoro-1-oxo-5-(4-{[(1r,4r)-4-[(4-{6-[5-(1-methylcyclopropoxy)-1H-indazol-3-yl]pyrimidin-4-yl}piperazin-1-yl)methyl]cyclohexyl]oxy}piperidin-1-yl)-2,3-dihydro-1H-isoindol-2-yl]piperidine-2,6-dione] | ≥ 70% | 10 to 50 nM
COc1c(N2CCC(CN3C[C@@H](C)N(CC4CCN(c5cc(-c6n[nH]c7ccc(OC8(C)CC8)cc67)ncn5)CC4)[C@@H](C)C3)CC2)ccc2c1CN(C1CCC(=O)NC1=O)C2=O (stereo partly drawn) [Compound 287, 3-[5-(4-{[(3R,5S)-3,5-dimethyl-4-[(1-{6-[5-(1-methylcyclopropoxy)-1H-indazol-3-yl]pyrimidin-4-yl}piperidin-4-yl)methyl]piperazin-1-yl]methyl}piperidin-1-yl)-4-methoxy-1-oxo-2,3-dihydro-1H-isoindol-2-yl]piperidine-2,6-dione] | 50 to 70% | < 10 nM
COc1c(N2CCC(CN3[C@H](C)CN(CC4CCN(c5cc(-c6n[nH]c7ccc(OC8(C)CC8)cc67)ncn5)CC4)C[C@@H]3C)CC2)ccc2c1CN(C1CCC(=O)NC1=O)C2=O (stereo partly drawn) [Compound 288, 3-[5-(4-{[(2R,6S)-2,6-dimethyl-4-[(1-{6-[5-(1-methylcyclopropoxy)-1H-indazol-3-yl]pyrimidin-4-yl}piperidin-4-yl)methyl]piperazin-1-yl]methyl}piperidin-1-yl)-4-methoxy-1-oxo-2,3-dihydro-1H-isoindol-2-yl]piperidine-2,6-dione] | ≥ 70% | < 10 nM
CC1(Oc2ccc3n[nH]c(-c4cc(N5CC(OC6CCN(CC7CCN(c8ccc9c(c8F)CN(C8CCC(=O)NC8=O)C9=O)CC7)CC6)C5)ncn4)c3c2)CC1 (centres unmarked) [Compound 289, 3-{4-fluoro-5-[4-({4-[(1-{6-[5-(1-methylcyclopropoxy)-2H-indazol-3-yl]pyrimidin-4-yl}azetidin-3-yl)oxy]piperidin-1-yl}methyl)piperidin-1-yl]-1-oxo-2,3-dihydro-1H-isoindol-2-yl}piperidine-2,6-dione] | ≥ 70% | < 10 nM
CC1(Oc2ccc3n[nH]c(-c4cc(N5CCC(O[C@H]6C[C@H](N7CCC(c8ccc9c(c8F)CN(C8CCC(=O)NC8=O)C9=O)CC7)C6)CC5)ncn4)c3c2)CC1 (some centres unmarked) [Compound 290, 3-(4-fluoro-1-oxo-5-{1-[(1r,3r)-3-[(1-{6-[5-(1-methylcyclopropoxy)-2H-indazol-3-yl]pyrimidin-4-yl}piperidin-4-yl)oxy]cyclobutyl]piperidin-4-yl}-2,3-dihydro-1H-isoindol-2-yl)piperidine-2,6-dione] | ≥ 70% | < 10 nM
COc1c(N2CCN(C[C@@H]3CO[C@@H](CN4CCN(c5cc(-c6[nH]nc7ccc(OC8(C)CC8)cc67)ncn5)CC4)CO3)CC2)ccc2c1CN(C1CCC(=O)NC1=O)C2=O (some centres unmarked) [Compound 291, 3-[4-methoxy-5-(4-{[(2r,5s)-5-[(4-{6-[5-(1-methylcyclopropoxy)-2H-indazol-3-yl]pyrimidin-4-yl}piperazin-1-yl)methyl]-1,4-dioxan-2-yl]methyl}piperazin-1-yl)-1-oxo-2,3-dihydro-1H-isoindol-2-yl]piperidine-2,6-dione] | ≥ 70% | < 10 nM
CC1(Oc2ccc3n[nH]c(-c4cc(N5CCC(CO[C@H]6C[C@H](N7CCC(c8ccc9c(c8F)CN(C8CCC(=O)NC8=O)C9=O)CC7)C6)CC5)ncn4)c3c2)CC1 (some centres unmarked) [Compound 292, 3-(4-fluoro-1-oxo-5-{1-[(1r,3r)-3-[(1-{6-[5-(1-methylcyclopropoxy)-2H-indazol-3-yl]pyrimidin-4-yl}piperidin-4-yl)methoxy]cyclobutyl]piperidin-4-yl}-2,3-dihydro-1H-isoindol-2-yl)piperidine-2,6-dione] | 50 to 70% | < 10 nM
COc1c(N2CCC(O[C@H]3C[C@H](CN4CCN(c5cc(-c6[nH]nc7ccc(OC8(C)CC8)cc67)ncn5)CC4)C3)CC2)ccc2c1CN(C1CCC(=O)NC1=O)C2=O (some centres unmarked) [Compound 293, 3-(4-methoxy-1-oxo-5-{4-[(1r,3r)-3-[(4-{6-[5-(1-methylcyclopropoxy)-2H-indazol-3-yl]pyrimidin-4-yl}piperazin-1-yl)methyl]cyclobutoxy]piperidin-1-yl}-2,3-dihydro-1H-isoindol-2-yl)piperidine-2,6-dione] | 50 to 70% | < 10 nM
CC1(Oc2cc3c(-c4cc(N5CCC(CN6CC[C@@H](CN7CCN(c8ccc9c(c8F)CN(C8CCC(=O)NC8=O)C9=O)CC7)[C@@H](F)C6)CC5)ncn4)n[nH]c3cc2F)CC1 (some centres unmarked) [Compound 294, 3-[4-fluoro-5-(4-{[(3r,4s)-3-fluoro-1-[(1-{6-[6-fluoro-5-(1-methylcyclopropoxy)-1H-indazol-3-yl]pyrimidin-4-yl}piperidin-4-yl)methyl]piperidin-4-yl]methyl}piperazin-1-yl)-1-oxo-2,3-dihydro-1H-isoindol-2-yl]piperidine-2,6-dione] | 50 to 70% | < 10 nM
CC1(Oc2ccc3[nH]nc(-c4cc(N5CC[C@H](CN6CCN(CC7CCN(c8ccc9c(c8F)CN(C8CCC(=O)NC8=O)C9=O)CC7)CC6)C5)ncn4)c3c2)CC1 (stereo partly drawn) [Compound 295, 3-(4-fluoro-5-{4-[(4-{[(3R)-1-{6-[5-(1-methylcyclopropoxy)-1H-indazol-3-yl]pyrimidin-4-yl}pyrrolidin-3-yl]methyl}piperazin-1-yl)methyl]piperidin-1-yl}-1-oxo-2,3-dihydro-1H-isoindol-2-yl)piperidine-2,6-dione] | 50 to 70% | < 10 nM
CC1(Oc2ccc3n[nH]c(-c4cc(N5CCN(C[C@H]6CO[C@H](CN7CCN(c8ccc9c(c8F)CN(C8CCC(=O)NC8=O)C9=O)CC7)CO6)CC5)ncn4)c3c2)CC1 (some centres unmarked) [Compound 296, 3-[4-fluoro-5-(4-{[(2r,5s)-5-[(4-{6-[5-(1-methylcyclopropoxy)-2H-indazol-3-yl]pyrimidin-4-yl}piperazin-1-yl)methyl]-1,4-dioxan-2-yl]methyl}piperazin-1-yl)-1-oxo-2,3-dihydro-1H-isoindol-2-yl]piperidine-2,6-dione] | 50 to 70% | < 10 nM

Reference: patent publication US12559506B2, “Indazole based compounds and associated methods of use” (Arvinas Operations, Inc., priority 2021, dated 2026)
